The test deals with L1210 leukemia ip in BDF1 mice, survival T/C. Put plainly: NCI In Vivo Anticancer Drug Screen. Data for tumor model L1210 Leukemia (intraperitoneal) in B6D2F1 (BDF1) mice. Conditions: endpoint: mean survival time, higher = longer survival. The method in brief:
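Antitumor effect is assessed in tumor-bearing animals. Survival in the compound arm is compared with a vehicle-dosed control arm and expressed as their quotient.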

[1] abbreviates: dose: 100.0 mg/kg/injection, schedule: Q01DX009 (ip), vehicle: saline.
Where [2] appears, read: dose: 200.0 mg/kg/injection, schedule: Q01DX009 (ip), vehicle: saline.
Where [3] appears, read: dose: 100.0 mg/kg/injection, schedule: Q01DX001 (ip), vehicle: saline.
Setting [4] is: dose: 200.0 mg/kg/injection, schedule: Q01DX001 (ip), vehicle: saline.
[5] abbreviates: dose: 400.0 mg/kg/injection, schedule: Q01DX001 (ip), vehicle: saline.
Setting [6] is: dose: 100.0 mg/kg/injection, schedule: Q01DX009 (ip), vehicle: Klucel (hydroxypropylcellulose) (HPC).
[7] abbreviates: dose: 200.0 mg/kg/injection, schedule: Q01DX009 (ip), vehicle: Klucel (hydroxypropylcellulose) (HPC).

Several values for one entry are separate records, joined by “and”; a condition that tells them apart may be missing. Identical values can stand only once. Toxic doses and inconclusive results are not listed. Square brackets hold non-standard residues; d marks the D form. Peptide text beside a SMILES is read from it. * marks the point of attachment. ξ: configuration not given here. Tos = Cc1ccc(S(=O)(=O)*)cc1; ξY = NC(Cc1ccc(O)cc1)C(=O)O

T/C data for 18 compounds are collected here from PubChem BioAssay AID248 (DTP/NCI, 2004).

With `C(=C\c1ccc(C2=NCCN2)cc1)/c1ccc(C2=NCCN2)cc1`, the T/C by setting is: (dose: 11.5 mg/kg/injection, schedule: Q01DX Z (ip), vehicle: carboxymethylcellulose (CMC)) 115 % of control; (dose: 23.0 mg/kg/injection, schedule: Q01DX Z (ip), vehicle: carboxymethylcellulose (CMC)) 119 % of control; (dose: 46.0 mg/kg/injection, schedule: Q01DX Z (ip), vehicle: carboxymethylcellulose (CMC)) 150 % of control; (dose: 62.0 mg/kg/injection, schedule: Q01DX Z (oral), vehicle: carboxymethylcellulose (CMC)) 103 % of control; (dose: 125.0 mg/kg/injection, schedule: Q01DX Z (oral), vehicle: carboxymethylcellulose (CMC)) 108 % of control; (dose: 250.0 mg/kg/injection, schedule: Q01DX Z (oral), vehicle: carboxymethylcellulose (CMC)) 104 % of control. In addition, where the note is “dose: 500.0 mg/kg/injection, schedule: Q01DX Z (oral), vehicle: carboxymethylcellulose (CMC)”, the T/C is 101 % of control.

Turning to `C=CCNC(=S)Nc1cccc(C(C)O)c1` (stereo not drawn), the T/C under setting [1] is 107 % of control; the T/C (dose: 100.0 mg/kg/injection, schedule: Q04DX002 (ip), vehicle: saline) is 89 % of control; the T/C under setting [2] is 112 % of control; the T/C (dose: 200.0 mg/kg/injection, schedule: Q04DX002 (ip), vehicle: saline) is 89 % of control; the T/C (dose: 400.0 mg/kg/injection, schedule: Q04DX002 (ip), vehicle: saline) is 96 % of control.

`O=C(O)CC(O)C(F)(F)C(F)(F)C(F)(F)F` (stereo not drawn): the T/C is, setting by setting: under setting [1], 90 % of control; (dose: 100.0 mg/kg/injection, schedule: Q04DX003 (ip), vehicle: saline) 100 % of control; under setting [2], 86 % of control; (dose: 200.0 mg/kg/injection, schedule: Q04DX003 (ip), vehicle: saline) 97 % of control; (dose: 400.0 mg/kg/injection, schedule: Q04DX003 (ip), vehicle: saline) 87 % of control.

As for `CCCCCC(C[N+](C)(C)C)C(=O)/C=C/c1ccc(Cl)c(Cl)c1` (stereo not drawn), the T/C was 91 % of control (dose: 25.0 mg/kg/injection, schedule: Q04DX002 (ip), vehicle: Klucel (hydroxypropylcellulose) (HPC)); 98 % of control (dose: 50.0 mg/kg/injection, schedule: Q04DX002 (ip), vehicle: Klucel (hydroxypropylcellulose) (HPC)); 95 % of control (dose: 100.0 mg/kg/injection, schedule: Q04DX002 (ip), vehicle: Klucel (hydroxypropylcellulose) (HPC)).

`Cc1nc2ncnc(Cl)c2[nH]1`: the T/C is, setting by setting: under setting [3], 103 % of control; under setting [4], 106 % of control; under setting [5], 100 % of control.

On to `Nc1ccc(SCCC(=O)O)cc1`, for which the T/C was 96 % of control and 97 % of control (dose: 75.0 mg/kg/injection, schedule: Q01DX001 (ip), vehicle: other); 105 % of control (dose: 150.0 mg/kg/injection, schedule: Q01DX001 (ip), vehicle: other).

Consider `CC1C/C=C2\CSC(NC(=O)/C3=C\N(C/C=C/C=C/C(O)CC(O)CC(=O)N3)C2=O)C(=O)O1` (stereo not drawn), for which the T/C is 100 % of control (dose: 10.6 mg/kg/injection, schedule: Q01DX Z (ip), vehicle: saline); 106 % of control (dose: 16.0 mg/kg/injection, schedule: Q01DX Z (ip), vehicle: saline); 106 % of control (dose: 24.0 mg/kg/injection, schedule: Q01DX Z (ip), vehicle: saline); 103 % of control (dose: 36.0 mg/kg/injection, schedule: Q01DX Z (ip), vehicle: saline); 110 % of control (dose: 100.0 mg/kg/injection, schedule: Q01DX001 (ip), vehicle: carboxymethylcellulose (CMC)); 94 % of control (dose: 200.0 mg/kg/injection, schedule: Q01DX001 (ip), vehicle: carboxymethylcellulose (CMC)). The T/C (dose: 400.0 mg/kg/injection, schedule: Q01DX001 (ip), vehicle: carboxymethylcellulose (CMC)) is 97 % of control.

As for `c1ccc(-n2ncnn2)cc1`, the T/C under setting [3] is 98 % of control, the T/C under setting [4] was 95 % of control and the T/C under setting [5] was 90 % of control.

For `COc1cc2c(cc1OC)C(CCc1ccc(Cl)cc1)N(C)CC2` (stereo not drawn), the T/C runs as follows: (dose: 12.5 mg/kg/injection, schedule: Q01DX009 (ip), vehicle: Klucel (hydroxypropylcellulose) (HPC)) 113 % of control; (dose: 25.0 mg/kg/injection, schedule: Q01DX009 (ip), vehicle: Klucel (hydroxypropylcellulose) (HPC)) 108 % of control; (dose: 50.0 mg/kg/injection, schedule: Q01DX009 (ip), vehicle: Klucel (hydroxypropylcellulose) (HPC)) 104 % of control; under setting [6], 116 % of control; under setting [7], 113 % of control.

As for `O=C(OC1CSC1)c1ccc([N+](=O)[O-])cc1`, the T/C is 95 % of control under setting [6]; 92 % of control under setting [7]; 97 % of control (dose: 400.0 mg/kg/injection, schedule: Q01DX009 (ip), vehicle: Klucel (hydroxypropylcellulose) (HPC)).

In the case of `CCCCN(C(=O)OCC)P(=O)(OCC)OCC`, the T/C is 95 % of control under setting [1] and 109 % of control under setting [2].

With `COC(=O)C(Cc1ccc(O)cc1)NC(=O)CNS(=O)(=O)c1ccc(C)cc1` (stereo not drawn) (Tos-Gly-[ξY]-OMe), the T/C is 105 % of control (dose: 100.0 mg/kg/injection, schedule: Q04DX003 (ip), vehicle: other); 94 % of control (dose: 200.0 mg/kg/injection, schedule: Q04DX003 (ip), vehicle: other); 104 % of control (dose: 400.0 mg/kg/injection, schedule: Q04DX003 (ip), vehicle: other).

With `CN(C)C1=C(N2CC2)C(=O)C(N(C)C)=C(N2CC2)C1=O`, the T/C runs as follows: (dose: 0.09 mg/kg/injection, schedule: Q01DX001 (ip), vehicle: saline) 107 % of control; (dose: 0.09 mg/kg/injection, schedule: Q01DX009 (ip), vehicle: saline) 93 % of control and 116 % of control; (dose: 0.09 mg/kg/injection, schedule: Q04DX003 (ip), vehicle: saline) 94 % of control and 107 % of control; (dose: 0.18 mg/kg/injection, schedule: Q01DX001 (ip), vehicle: saline) 108 % of control; (dose: 0.18 mg/kg/injection, schedule: Q01DX009 (ip), vehicle: saline) 96 % of control and 108 % of control; (dose: 0.37 mg/kg/injection, schedule: Q01DX001 (ip), vehicle: saline) 97 % of control. The T/C (dose: 0.37 mg/kg/injection, schedule: Q01DX009 (ip), vehicle: saline) was 114 % of control and 116 % of control; the T/C (dose: 0.75 mg/kg/injection, schedule: Q01DX001 (ip), vehicle: saline) was 98 % of control; the T/C (dose: 0.75 mg/kg/injection, schedule: Q01DX009 (ip), vehicle: saline) is 110 % of control; the T/C (dose: 1.5 mg/kg/injection, schedule: Q01DX001 (ip), vehicle: saline) was 115 % of control; the T/C (dose: 1.5 mg/kg/injection, schedule: Q01DX009 (ip), vehicle: saline) was 93 % of control.

Take `NC(N)=Nc1nc2ccccc2s1`: the T/C was 94 % of control (dose: 12.5 mg/kg/injection, schedule: Q01DX009 (ip), vehicle: saline); 100 % of control (dose: 25.0 mg/kg/injection, schedule: Q01DX009 (ip), vehicle: saline); 103 % of control (dose: 25.0 mg/kg/injection, schedule: Q04DX003 (ip), vehicle: Klucel (hydroxypropylcellulose) (HPC)); 96 % of control (dose: 50.0 mg/kg/injection, schedule: Q01DX009 (ip), vehicle: saline); 100 % of control (dose: 50.0 mg/kg/injection, schedule: Q04DX003 (ip), vehicle: Klucel (hydroxypropylcellulose) (HPC)).

Turning to `Nc1ccnc(C(F)(F)F)n1`, the T/C was 93 % of control (dose: 50.0 mg/kg/injection, schedule: Q01DX Z (ip), vehicle: methylcellulose (MC)) and 90 % of control (dose: 100.0 mg/kg/injection, schedule: Q01DX Z (ip), vehicle: methylcellulose (MC)).

In the case of `CCC(=O)OC1(c2ccccc2)CCN(C/C=C/c2cccc3ccccc23)CC1`, the T/C is 103 % of control (dose: 100.0 mg/kg/injection, schedule: Q01DX001 (ip), vehicle: gum acacia) and 103 % of control (dose: 200.0 mg/kg/injection, schedule: Q01DX001 (ip), vehicle: gum acacia).

For the compound `O=C1Cc2ncccc2N1`, the T/C by setting is: under setting [3], 107 % of control; under setting [4], 100 % of control; under setting [5], 114 % of control.

For `CCCCCCCCCCCCCCCCCCN1C(=O)C2C(C1=O)C1(Cl)C(Cl)=C(Cl)C2(Cl)C1(Cl)Cl` (stereo not drawn), the T/C by setting is: (dose: 100.0 mg/kg/injection, schedule: Q04DX003 (ip), vehicle: saline with Tween-80) 96 % of control; (dose: 200.0 mg/kg/injection, schedule: Q04DX003 (ip), vehicle: saline with Tween-80) 93 % of control.
